Results as given in article PMC11889516 (Microbial Biotechnology, 2025).

T1: CYP116B234 (Rhodococcus globerulus, UniProt A0ABU4C0V8)
T1 construct: gene R3Q16_26300; full-length, N-terminal polyhistidine tag (GenBank MCE4265947.1)
T1 sequence (A0ABU4C0V8 1-767): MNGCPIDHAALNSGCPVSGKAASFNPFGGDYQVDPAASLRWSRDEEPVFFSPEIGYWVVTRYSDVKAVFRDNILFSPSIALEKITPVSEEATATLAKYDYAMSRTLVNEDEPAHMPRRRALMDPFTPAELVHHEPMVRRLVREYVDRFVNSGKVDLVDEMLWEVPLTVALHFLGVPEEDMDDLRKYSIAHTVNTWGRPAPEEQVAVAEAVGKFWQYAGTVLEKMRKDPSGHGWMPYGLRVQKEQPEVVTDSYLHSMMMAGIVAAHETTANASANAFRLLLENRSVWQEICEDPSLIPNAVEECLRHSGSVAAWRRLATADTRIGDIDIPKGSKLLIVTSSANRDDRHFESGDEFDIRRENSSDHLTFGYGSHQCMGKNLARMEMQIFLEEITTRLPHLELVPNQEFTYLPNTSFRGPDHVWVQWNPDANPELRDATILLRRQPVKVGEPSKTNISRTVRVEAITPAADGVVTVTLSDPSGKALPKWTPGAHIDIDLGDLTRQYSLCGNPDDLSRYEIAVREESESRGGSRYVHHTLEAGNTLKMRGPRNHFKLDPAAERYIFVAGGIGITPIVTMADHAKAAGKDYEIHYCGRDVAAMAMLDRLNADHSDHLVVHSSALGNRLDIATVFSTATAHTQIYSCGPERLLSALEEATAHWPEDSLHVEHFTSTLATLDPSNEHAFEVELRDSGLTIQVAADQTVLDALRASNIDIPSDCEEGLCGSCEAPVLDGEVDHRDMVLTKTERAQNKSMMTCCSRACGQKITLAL

B1: CYP116B234 (Rhodococcus globerulus) (protein)
chain: T1 sequence (A0ABU4C0V8 1-767)
notes: full-length, N-terminal polyhistidine tag (GenBank MCE4265947.1)

Key:
[1] = target: T1, CYP116B234; assay: UV-visible difference spectroscopy titration (heme spin-state shift); also NADPH consumption and turnover with purified enzyme; assay type: binding
[2] = substrate: NC(=O)C1=CN([C@@H]2O[C@H](COP(=O)(O)OP(=O)(O)OC[C@H]3O[C@@H](n4cnc5c(N)ncnc54)[C@H](OP(=O)(O)O)[C@@H]3O)[C@@H](O)[C@H]2O)C=CC1; assay: purified protein; assay type: biochemical, Rhodococcus globerulus; details: FMN, [2Fe-2S], heme reductase domain; varied: cofactor
[3] = substrate: NC(=O)C1=CN([C@@H]2O[C@H](COP(=O)(O)OP(=O)(O)OC[C@H]3O[C@@H](n4cnc5c(N)ncnc54)[C@H](O)[C@@H]3O)[C@@H](O)[C@H]2O)C=CC1; assay: purified protein; details: FMN, [2Fe-2S], heme reductase domain; varied: cofactor

Molecule	Kd [1]	Km [2]	Km [3]
O=C(O)Cc1ccccc1O [2-HPA, 2‐hydroxyphenylacetic acid]	700 ± 100 nM		
O=C(O)CCc1ccccc1O [HPPA, 3‐(2‐hydroxyphenyl)propionic acid]	1900 ± 100 nM		
B1		0.5 ± 0.4 µM	240 ± 20 µM
